Assay results reported in patent US7507792B2, “MDA-7 proteins and methods of use thereof” (The Trustees of Columbia University In The City of New York, priority 1993, dated 2009).
“Also recorded” adds a separate entry of the source.

What was measured:
[1] = system: mda-6; test: mda-6 expression (Northern blotting); format: cell-based, human
Procedure: (§1) The mass excision of the library was performed using ExAssist helper phage as described above. The SOLR strain of Escherichia coli and cDNA phagemids were mixed at 37° C. for 15 min and plated onto LB plates containing ampicillin and IPTG/X-gal. White colonies were chosen at random, isolated and grown in LB medium. Plasmid minireps and restriction enzyme digestions were performed to confirm the presence of inserts. The inserts were isolated and used as robes for Northern blotting analysis (5,25). […] Radiolabeled probes were generated by random oligonucleotide priming (25). Prehybridization, hybridization, posthybridization washes, and autoradiography were performed as described (5,18,25).
Total cytoplasmic RNA was isolated and Northern blotting hybridization was performed as described (Reddy et al., 1991; Su et al., 1991; Jiang et al., 1992). Ten μg of RNA was denatured with glyoxal/DMSO, electrophoresed on 1.0% agarose gels, transferred to nylon membranes and hybridized to a ^32P-labeled p53 probe (Baker et al., 1990). The nylon membrane was stripped and hybridized to a ^32P-labeled mda-6 probe (Jiang and Fisher, 1993) and then after a second stripping the membrane was hybridized to a ^32P-labeled rat GAPDH probe (Fort et al., 1985), as described previously (Reddy et al., 1991; Su et al., 1991; Jiang et al., 1992). Following hybridization, the filters were washed and exposed for autoradiography (Reddy et al., 1991; Su et al., 1991; Jiang et al., 1992). mda-6 and GAPDH gene expression were also determined by reverse transcription-polymerase chain reaction (RT-PCR) as described (Adollahi et al., 1991; Lin et al., 1994; Jiang et al., 1994b). Total cytoplasmic RNA was treated with 0.5 units DNase (Boehringer-Mannheim Biochemicals)/μg RNA in 15% glycerol, 10 mM Tris, pH 7.5, 2.5 mM MgCl2, 0.1 mM EDTA, 80 mM KCl, 1 mM CaCl2 and 1 unit/ml RNasin (Promega) at 30° C. for 10 min. RNA was extracted with phenol-chloroform, precipitated with sodium acetate/ethanol and RNA pellets were resuspended in diethylpyrocarbonate-treated H2O. One μg of total RNA was reverse transcribed with 200 units of murine leukemia virus reverse transcriptase (Bethesda Research Laboratories) in 20 μl containing 1 mM deoxyribonucleotide triphosphates, 4 mM MgCl2, 10 mM Tris, pH 8.3, 50 mM KCl, 0.001% gelatin and 0.2 μg oligo-dT primer. Samples were adjusted to 100 μl with buffer containing 0.2 mM deoxyribonucleotide triphosphates, 2 mM MgCl2, 10 mM Tris, pH 8.3, 50 mM KCl and 0.001% gelatin. Fifty pmol of each primer, 1.5 units Taq DNA polymerase (Perkin-Elmer Cetus) were added and samples were covered with mineral oil, heated at 95° C. for 5 min and subjected to 25 cycles of PCR in a Perkin-Elmer Thermal Cycler using 1 min denaturation at 94° C., 2 min annealing at 55° C. and 3 min polymerization at 72° C. After extraction with chloroform, 20 μl of products were electrophoresed, blotted onto nylon filters and hybridized with an mda-6 or GAPDH specific probe. The mda-6 primers were 5′ to 3′ […] (SEQ ID NO:26) and […] (SEQ ID NO:27)(corresponding to nt 1527 to 1546) (GenBank accession number U09579); and the GAPDH primers were 5′ to 3′ […] (SEQ ID NO:28)and […] (SEQ ID NO:29)(corresponding to nt 1070 to 1053) (Tokunaga et al., 1987).

[2] = system: mda-7; test: mda-7 expression (Northern blotting, RT-PCR); format: cell-based, human; conditions: for mda-7 expression: H0-1
Procedure: as §1

[3] = terminally differentiated HL-60 cells, TPA for 2 days, RA for 4 days
[4] = H0-1, 96 hours, doses of FIG. 15 legend
[5] = 96 hours, doses of FIG. 15 legend

CCCCCCCCCCCCCC(=O)O[C@@H]1[C@@H](C)[C@@]2(O)[C@@H](C=C(CO)C[C@]3(O)C(=O)C(C)=C[C@@H]23)[C@@H]2C(C)(C)[C@]12OC(C)=O [TPA, 12-O-tetradecanoyl-phorbol-13-acetate]
mda-6 expression ([1]; human histiocytic lymphoma, U-937, cells, differentiation and growth arrest): induced
mda-7 expression (RT-PCR) ([2]; HL-60 and U-937 cells): induced
mda-7 expression (RT-PCR) [2, 3]: persists

CC1=C(/C=C/C(C)=C/C=C/C(C)=C/C(=O)O)C(C)(C)CCC1 [RA, trans-retinoic acid]
mda-6 expression [1, 4]: no significant or reduced alteration in expression
mda-7 expression [2, 5]: does not induce growth changes or induce mda-7 expression
mda-7 expression (RT-PCR) ([2]; LAN human neuroblastoma cells, 5 days): not induced
mda-7 expression (RT-PCR) [2, 3]: persists

C=C(C)[C@@]12O[C@@]3(c4ccccc4)O[C@@H]1[C@@H]1[C@@H]4O[C@]4(CO)[C@@H](O)[C@]4(O)C(=O)C(C)=C[C@H]4[C@@]1(O3)[C@H](C)[C@H]2OC(=O)/C=C/C=C/c1ccccc1 [MEZ, mezerein]
mda-6 expression ([1]; H0-1, 24 hours, doses of FIG. 19, phenyl butyrate 24 hours, 4 or 7 days): increased expression; also recorded: smaller induction of mda-6 expression
mda-6 expression [1, 4]: no significant or reduced alteration in expression
mda-7 expression ([2]; 24 hours, doses of FIG. 19, phenyl butyrate 24 hours, 4 days or 7 days): increased mda-7 expression
mda-7 expression [2, 5]: Increased expression
